Reference: patent US10351718B2, “Optical filter and imaging device” (AGC Inc., priority 2015, dated 2019)

Assays:
[1] = Absorption characteristic of the dye in dichloromethane; format: physicochemical; settings: for λ80 (wavelength with 80% transmittance on shorter wavelength side of λmax) / λmax − λ80: dichloromethane, transmittance at λmax set to 10%; for εA (maximum absorption coefficient in a wavelength of 430 to 550 nm) / εB (maximum absorption coefficient in a wavelength of 670 to 730 nm) / εB/εA / λmax (maximum absorption wavelength): dissolved in dichloromethane
Experimental: The dyes obtained above were each dissolved in dichloromethane, and using an ultraviolet-visible spectrophotometer (made by Hitachi High Technologies Co., Ltd., U-4100 type), each spectral transmittance curve was measured, from which a maximum absorption wavelength λmax, a wavelength λ80 with which the transmittance becomes 80% on a shorter wavelength side than the maximum absorption wavelength with the transmittance at the maximum absorption wavelength set to 10%, the difference between the maximum absorption wavelength λmax and the wavelength λ80 (λmax−λ80), a maximum absorption coefficient εA in a wavelength of 430 to 550 nm, a maximum absorption coefficient εB in a wavelength of 670 to 730 nm, and a ratio of these (εB/εA) were calculated. Note that measurement of the dye (A9) was not performed because its solubility was low. Further, for each of the following spectral transmittance curves, an ultraviolet-visible spectrophotometer (made by Hitachi High Technologies Co., Ltd., U-4100 type) was used.

[2] = Solubility of dye to resin solution; format: physicochemical
Experimental: Regarding several kinds of the dyes obtained above, solubility to a resin solution was evaluated. In a solubility test, as the resin solution, there was used a solution having a resin concentration of 12.5 mass % that was prepared by dissolving a polyester resin (product name: OKP850 made by Osaka Gas Chemicals Co., Ltd.) in a mixed solvent (cyclohexanone:methyl isobutyl ketone (MIBK)=1:1). Results are illustrated in Table 5 together with the kinds of the used dyes. Incidentally, the temperature of the resin solution in the solubility test was 50° C., the dye was put into the resin solution, the resultant resin solution was stirred for two hours, and whether or not the dye was dissolved was observed visually. Evaluation criteria of the solubility are as follows.
A: Solubility greater than 10 mass %
B: Solubility greater than 5 mass % and 10 mass % or less
C: Solubility 5 mass % or less

SMILES	λ80 (wavelength with 80% transmittance on shorter wavelength side of λmax) [1]	λmax − λ80 [1]	εA (maximum absorption coefficient in a wavelength of 430 to 550 nm) [1]	εB (maximum absorption coefficient in a wavelength of 670 to 730 nm) [1]	εB/εA [1]	λmax (maximum absorption wavelength) [1]	Solubility Evaluation ([2]; 12.5 mass % polyester resin OKP850 in cyclohexanone:MIBK 1:1, 50° C.)	Solubility ([2]; 12.5 mass % polyester resin OKP850 in cyclohexanone:MIBK 1:1, 50° C., stirred two hours, visual)	Solubility to the resin solution (in words) ([2]; polyester resin OKP850 solution, 50° C., compared to dyes without branch structure in R^1)
CCCc1ccc(S(=O)(=O)Nc2cc3c(cc2C2=C([O-])C(=c4cc5c(cc4NS(=O)(=O)c4ccc(CCC)cc4)=[N+](C)C(C)C5(C)C)C2=O)C(C)(C)C(C)N3C)cc1 (stereo not drawn) [Dye A1-6]	633 nm	60 nm	0.0139	1	71.9	693 nm			
CCCCCc1ccc(S(=O)(=O)Nc2cc3c(cc2C2=C([O-])C(=c4cc5c(cc4NS(=O)(=O)c4ccc(CCCCC)cc4)=[N+](C)C(C)C5(C)C)C2=O)C(C)(C)C(C)N3C)cc1 (stereo not drawn) [Dye A1-7]	633 nm	60 nm	0.0147	1	68.0	693 nm			
CC(C)N1c2cc(NS(=O)(=O)c3ccc(F)cc3)c(C3=C([O-])C(=c4cc5c(cc4NS(=O)(=O)c4ccc(F)cc4)=[N+](C(C)C)C(C)C5(C)C)C3=O)cc2C(C)(C)C1C (stereo not drawn) [Dye A1-11]	648 nm	52 nm	0.0110	1	90.9	700 nm			
CCC(C)(C)N1c2cc(NS(=O)(=O)C(F)(F)F)c(C3=C([O-])C(=c4cc5c(cc4NS(=O)(=O)C(F)(F)F)=[N+](C(C)(C)CC)C(C)C5(C)C)C3=O)cc2C(C)(C)C1C (stereo not drawn) [Dye A1-22]	660 nm	51 nm	0.0122	1	82.0	711 nm			
CC(C)N1c2cc(NS(=O)(=O)C(F)(F)F)c(C3=C([O-])C(=c4cc5c(cc4NS(=O)(=O)C(F)(F)F)=[N+](C(C)C)C(C)C5(C)C)C3=O)cc2C(C)(C)C1C (stereo not drawn) [Dye A1-9]	651 nm	52 nm	0.0082	1	122	703 nm	A (greater than 10 mass %)	12 mass %	high solubility
Cc1ccc(S(=O)(=O)Nc2cc3c(cc2C2=C([O-])C(=c4cc5c(cc4NS(=O)(=O)c4ccc(C)cc4)=[N+](C(C)C)C(C)C5(C)C)C2=O)C(C)(C)C(C)N3C(C)C)cc1 (stereo not drawn) [Dye A1-12]	648 nm	52 nm	0.0116	1	86.2	700 nm			
CC1N(C)c2cc(NS(=O)(=O)c3ccccc3C(F)(F)F)c(C3=C([O-])C(=c4cc5c(cc4NS(=O)(=O)c4ccccc4C(F)(F)F)=[N+](C)C(C)C5(C)C)C3=O)cc2C1(C)C (stereo not drawn) [Dye A1-4]	633 nm	62 nm	0.0104	1	96.2	695 nm			
CCCCCCCCS(=O)(=O)Nc1cc2c(cc1C1=C([O-])C(=c3cc4c(cc3NS(=O)(=O)CCCCCCCC)=[N+](C(C)C)C(C)(C)C4(C)C)C1=O)C(C)(C)C(C)(C)N2C(C)C [Dye A1-24]	651 nm	49 nm	0.0110	1	89.7	700 nm			
CCCS(=O)(=O)Nc1cc2c(cc1C1=C([O-])C(=c3cc4c(cc3NS(=O)(=O)CCC)=[N+](C(C)C)C(C)C4(C)C)C1=O)C(C)(C)C(C)N2C(C)C (stereo not drawn) [Dye A1-13]	645 nm	53 nm	0.0113	1	88.5	698 nm			
CCCCCCCCS(=O)(=O)Nc1cc2c(cc1C1=C([O-])C(=c3cc4c(cc3NS(=O)(=O)CCCCCCCC)=[N+](C(C)C)C(C)(CC)C4(C)C)C1=O)C(C)(C)C(C)(CC)N2C(C)C (stereo not drawn) [Dye A1-25]	653 nm	51 nm	0.0130	1	77.6	704 nm			
CC1N(C)c2cc(NS(=O)(=O)C(F)(F)C(F)(F)C(F)(F)C(F)(F)F)c(C3=C([O-])C(=c4cc5c(cc4NS(=O)(=O)C(F)(F)C(F)(F)C(F)(F)C(F)(F)F)=[N+](C)C(C)C5(C)C)C3=O)cc2C1(C)C (stereo not drawn) [Dye A1-3]	637 nm	61 nm	0.0065	1	154	698 nm			
Cc1ccccc1S(=O)(=O)Nc1cc2c(cc1C1=C([O-])C(=c3cc4c(cc3NS(=O)(=O)c3ccccc3C)=[N+](C(C)C)C(C)C4(C)C)C1=O)C(C)(C)C(C)N2C(C)C (stereo not drawn) [Dye A1-18]	649 nm	50 nm	0.0110	1	90.9	699 nm			
CCCCCc1ccc(S(=O)(=O)Nc2cc3c(cc2C2=C([O-])C(=c4cc5c(cc4NS(=O)(=O)c4ccc(CCCCC)cc4)=[N+](C(C)C)C(C)C5(C)C)C2=O)C(C)(C)C(C)N3C(C)C)cc1 (stereo not drawn) [Dye A1-19]	648 nm	51 nm	0.0126	1	79.4	699 nm			
CC(C)N1c2cc(N3S(=O)(=O)C(F)(F)C(F)(F)S3(=O)=O)c(C3=C([O-])C(=c4cc5c(cc4N4S(=O)(=O)C(F)(F)C(F)(F)S4(=O)=O)=[N+](C(C)C)C(C)C5(C)C)C3=O)cc2C(C)(C)C1C (stereo not drawn) [Dye A1-20]	651 nm	52 nm	0.0100	1	100	703 nm			
CCCCCCCCS(=O)(=O)Nc1cc2c(cc1C1=C([O-])C(=c3cc4c(cc3NS(=O)(=O)CCCCCCCC)=[N+](C(C)C)C(C)(C(C)C)C4(C)C)C1=O)C(C)(C)C(C)(C(C)C)N2C(C)C (stereo not drawn) [Dye A1-26]	654 nm	53 nm	0.0140	1	71.6	707 nm			
CCCc1ccc(S(=O)(=O)Nc2cc3c(cc2C2=C([O-])C(=c4cc5c(cc4NS(=O)(=O)c4ccc(CCC)cc4)=[N+](C(C)C)C(C)C5(C)C)C2=O)C(C)(C)C(C)N3C(C)C)cc1 (stereo not drawn) [Dye A1-14]	647 nm	52 nm	0.0121	1	82.6	699 nm			
CCC(C)(C)N1c2cc(NS(=O)(=O)C(F)(F)C(F)(F)C(F)(F)C(F)(F)F)c(C3=C([O-])C(=c4cc5c(cc4NS(=O)(=O)C(F)(F)C(F)(F)C(F)(F)C(F)(F)F)=[N+](C(C)(C)CC)C(C)C5(C)C)C3=O)cc2C(C)(C)C1C (stereo not drawn) [Dye A1-23]	663 nm	50 nm	0.0124	1	80.6	713 nm			
CC(C)N1c2cc(NS(=O)(=O)C(F)(F)C(F)(F)C(F)(F)C(F)(F)F)c(C3=C([O-])C(=c4cc5c(cc4NS(=O)(=O)C(F)(F)C(F)(F)C(F)(F)C(F)(F)F)=[N+](C(C)C)C(C)C5(C)C)C3=O)cc2C(C)(C)C1C (stereo not drawn) [Dye A1-17]	653 nm	52 nm	0.0081	1	123	705 nm			
